Each structure is given as a SMILES string.

The conditions of data set [1]: cited from earlier work.
Data set [2] in a line: Comparative particle size distribution. The class given is physicochemical. An excerpt: Comparative particle size distribution of unmilled acitretin, air-jet milled acitretin, oil-milled and wet milled solid dispersion of acitretin.

With `COc1cc(C)c(/C=C/C(C)=C/C=C/C(C)=C/C(=O)O)c(C)c1C` [Acitretin], the Solubility in water entry in data set [1] is reported as “practically insoluble”.
Turning to `COc1cc(C)c(/C=C/C(C)=C/C=C/C(C)=C/C(=O)O)c(C)c1C` [Air-jet milled acitretin, acitretin], in data set [2], the “Particle size D10” value amounted to 2.13 microns, the “Particle size D50” value came out at 5.51 microns and the “Particle size D90” value was determined as 14.48 microns.
The matching figures for `COc1cc(C)c(/C=C/C(C)=C/C=C/C(C)=C/C(=O)O)c(C)c1C` [Unmilled acitretin, acitretin]: 11.14 microns, 39.59 microns and 105.0 microns.
